Measurements taken from patent US20250082781A1, “METHODS OF LOWERING BLOOD GLUCOSE AND TREATING TYPE 2 DIABETES BY ACTIVATION OF PDE4D3” (Salk Institute for Biological Studies, priority 2021, published 2025).

What was measured:
[1] = test system: mouse SVF-derived adipocytes; test: In vitro lipolysis assay (FFA release), mouse SVF-derived adipocytes; assay type: cell-based
Experimental: Isolation of adipose stromal fraction (SVF) was performed as published previously with slight modifications (Bapat et al., 2015). Inguinal adipose (iWAT) tissues were used for isolation of SVF due their ability to differentiate to mature adipocytes. Briefly, adipose tissues were dissected, washed in cold PBS and cut into small pieces in digestion buffer (100 mM HEPES, 120 mM NaCl, 50 mM KCl, 1 mM CaCl2), 1.5% fatty acids free BSA, 1 mg/ml collagenase I). Samples were dissociated in 37° C. water bath with shaking for 30-60 min with occasional monitoring to prevent over digestion. Tissue debris were filtered by 100 μm cell strainer and SVF was collected by centrifugation at 500 g for 5 minutes. Cell pellet was washed once by PBS and filtered with 40 μm cell strainer. Red blood cells were lysed with Red blood cell lysis buffer (BioLegend) according to manufacturer's instructions. The remaining cells were re-suspended and cultured in DMEM/F12 with 20% FBS (GemCell, 100-500) at 37° C., 5% CO2.
(§1) Differentiation of pre-adipocytes were based on previously published methods (Bunnell et al., 2008). Briefly, 3T3-L1 pre-adipocytes were grown to full confluence in DMEM, 10% FBS (GemCell, 100-500), 10 mM HEPES and antibiotic-antimycotic (full growth media). 2 days later, differentiation was induced by replacing the media with 1 μM dexamethasone, 1 μM rosiglitazone, 500 μM IBMX and 5 μg/ml insulin in full growth media 2 days later after reaching full confluence. Two days later media was replaced by differentiation induction media with 1 μM rosiglitazone and 5 μg/ml insulin for 4 days with media change after 2 days. Cells were kept in maintenance medium (full growth media with 5 μg/ml insulin) for 4 more days for full differentiation. […]
(§2) For in vitro lipolysis assay, cells were washed with PBS and media were changed to full growth media 1 day before experiment. […] FFAs were measured in the media using a commercial kit (Wako-NEFAHR2) and normalized to protein concentration. […] FFAs were measured and normalized by the explant weights.

[2] = test system: human SVF-derived adipocytes; test: In vitro lipolysis assay (FFA release), human SVF-derived adipocytes; assay type: cell-based
Experimental: as §1, with “differentiation. For differentiation of mouse SVF derived adipocytes, the protocol was same except DMEM/F12 (10565018, ThermoFisher) was used as base media and initial differentiation induction media was kept for 3 days. For differentiation of human subcutaneous adipocytes, protocol and media from the manufacturer (C-12735, C-39437, Promocell) were used.” for “differentiation.”
as §2

[3] = test system: HSL phosphorylation at S660; test: Western blot of pHSL-S660 in 3T3-L1 adipocytes; assay type: cell-based; details: basal and ISO-stimulated, FGF1 100 ng/ml
Experimental: (§3) Tissues were lysed in cold lysis buffer (50 mM Tris, pH 7.5, 150 mM NaCl, 1% NP40, 0.5% NaDoc, 0.1% SDS, 5% glycerol, 1 mM EDTA, protease and phosphatase inhibitors (complete and PhosSTOP (Roche)) by homogenization by bead-beater for 30 s. Samples were cleared for 10 min at 18,000 g at 4° C. and the middle clear phase was transferred to new tubes. A second 30 min centrifugation was performed and the middle clear phase was transferred to new tubes. Five ul protein extract was used for BCA assay to determine protein concentration. Samples were boiled in Laemmli buffer. SDS-PAGE and blotting were performed using gradient gels and Trans-Blot Turbo Transfer System (Bio-Rad). Antibodies used were PDE4D (12918-1-AP, Proteintech), pHSL-660 (4126S, Cell signaling), HSL (4107S, Cell Signaling), tubulin (CP06, Millipore Sigma), and GFP (A01388, GenScript). PDE4D3-pS44 phospho-specific antibody was generated using PDE4D3-S44 FRRHpSWISFDVDNGTSAGR peptide (SEQ ID NO: 20) (Mackenzie et al., 2002) by Pocono Rabbit Farm, using 70-day rabbit antibody production protocol and purified via affinity purification. Primary antibodies were incubated for 2 h at room temperature (RT) or overnight (ON) at 4° C. Blots were developed using SuperSignal West Pico PLUS Chemiluminescent Substrate (ThermoFisher Scientific) and imaged with BioRad GelDoc system.

[4] = test system: HSL phosphorylation at S660; test: Western blot of pHSL-S660 in gWAT after injection; assay type: in vivo, mouse; details: 30 min after FGF1 injection 0.5 mg/kg
Experimental: as §3

cAMP = cAMP levels in 3T3-L1 adipocytes (ELISA, biosensor, CRE-Luc reporter); assay type: cell-based
Experimental: 3T3-L1 cells were transduced with viral particles ([…]) in 24 well plates. Media was replaced after overnight incubation. 3-4 days after AAV infection, cells were treated as described for lipolysis assay. For cAMP analysis by biosensors, Downward Green cADDis cAMP Sensor (D0200G) and control mNeon Green (F0500G) produced in BacMam system was purchased from Montana Molecular. Brightfield and fluorescence images were taken every 10-20 min in I IncuCyte® Live-cell analysis system (Sartorius) and images were analyzed by IncuCyte® Analysis Software. High-resolution live cell imaging was performed with LSM 880 Airyscan microscope at 40× objective.

PDE4D = test: Western blot of PDE4D phosphorylation in gWAT after injection; assay type: in vivo, mouse; details: 30 minutes after FGF1 injection 0.5 mg/kg
Experimental: as §3

[5] = FGF1 100 ng/ml with roflumilast 2 μM
[6] = FGF1 100 ng/ml, 10 min before ISO 1 nM

For “FGF1: Recombinant fibroblast growth factor 1 protein, dissolved in PBS, injected subcutaneously”, the “anti-lipolytic activity of FGF1 with selective inhibitors of PDE4” value [1, 5] was “blocked by selective inhibitors of PDE4”, the “basal and isoproterenol-induced lipolysis” value [1, 6] was “acutely suppressed basal and isoproterenol-induced lipolysis” and the “isoproterenol-induced lipolysis in adipocytes derived from PDE4D KO SVF” value ([1]; FGF1 100 ng/ml, ISO 1 nM) was “insensitive to FGF1 treatment”. The “anti-lipolytic activity of FGF1 with selective inhibitors of PDE4” value [2, 5] was “blocked by selective inhibitors of PDE4”, the “basal and isoproterenol-induced lipolysis” value [2, 6] was “acutely suppressed basal and isoproterenol-induced lipolysis” and the “HSL phosphorylation at S660 (pHSL)” value [3] was “suppressed HSL phosphorylation at S660”. The “pHSL levels in gWAT” value [4] was “decreased”, the “isoproterenol-induced increases in cAMP and cAMP/PKA signaling” value (cAMP; FGF1 pretreatment, ISO 100 nM) was “attenuated isoproterenol-induced increases in cAMP” and the “FGF1-induced attenuation of isoproterenol-driven increase in cAMP with PDE4 inhibitor” value (cAMP; live 3T3-L1 cells, cAMP biosensor, roflumilast 2 μM) was “lost”. For the same substance, the “PDE4D phosphorylation in gWAT” value (PDE4D) was “increase in PDE4D phosphorylation”.
